Experimental data as given in patent US12612409B2, “Pyrrolopyrimidines as CFTR potentiators” (Cystic Fibrosis Foundation, priority 2016, dated 2026).

Experiments:
[1] = target: T1, CFTR in F508del/F508del primary CF hBE cells (Homo sapiens, UniProt P13569, DEL508-508); test: Ussing chamber electrophysiology assay of CFTR potentiation in F508del/F508del CF bronchial epithelial cells (27° C.); type: cell-based
T1 construct: Primary cystic fibrosis human bronchial epithelial (CF hBE) cells were expanded and cultured; endogenous in cells; host or cells: primary CF human bronchial epithelial cells, genotype F508del/F508del
T1 sequence (P13569 with tags, fused parts or gaps DEL508-508): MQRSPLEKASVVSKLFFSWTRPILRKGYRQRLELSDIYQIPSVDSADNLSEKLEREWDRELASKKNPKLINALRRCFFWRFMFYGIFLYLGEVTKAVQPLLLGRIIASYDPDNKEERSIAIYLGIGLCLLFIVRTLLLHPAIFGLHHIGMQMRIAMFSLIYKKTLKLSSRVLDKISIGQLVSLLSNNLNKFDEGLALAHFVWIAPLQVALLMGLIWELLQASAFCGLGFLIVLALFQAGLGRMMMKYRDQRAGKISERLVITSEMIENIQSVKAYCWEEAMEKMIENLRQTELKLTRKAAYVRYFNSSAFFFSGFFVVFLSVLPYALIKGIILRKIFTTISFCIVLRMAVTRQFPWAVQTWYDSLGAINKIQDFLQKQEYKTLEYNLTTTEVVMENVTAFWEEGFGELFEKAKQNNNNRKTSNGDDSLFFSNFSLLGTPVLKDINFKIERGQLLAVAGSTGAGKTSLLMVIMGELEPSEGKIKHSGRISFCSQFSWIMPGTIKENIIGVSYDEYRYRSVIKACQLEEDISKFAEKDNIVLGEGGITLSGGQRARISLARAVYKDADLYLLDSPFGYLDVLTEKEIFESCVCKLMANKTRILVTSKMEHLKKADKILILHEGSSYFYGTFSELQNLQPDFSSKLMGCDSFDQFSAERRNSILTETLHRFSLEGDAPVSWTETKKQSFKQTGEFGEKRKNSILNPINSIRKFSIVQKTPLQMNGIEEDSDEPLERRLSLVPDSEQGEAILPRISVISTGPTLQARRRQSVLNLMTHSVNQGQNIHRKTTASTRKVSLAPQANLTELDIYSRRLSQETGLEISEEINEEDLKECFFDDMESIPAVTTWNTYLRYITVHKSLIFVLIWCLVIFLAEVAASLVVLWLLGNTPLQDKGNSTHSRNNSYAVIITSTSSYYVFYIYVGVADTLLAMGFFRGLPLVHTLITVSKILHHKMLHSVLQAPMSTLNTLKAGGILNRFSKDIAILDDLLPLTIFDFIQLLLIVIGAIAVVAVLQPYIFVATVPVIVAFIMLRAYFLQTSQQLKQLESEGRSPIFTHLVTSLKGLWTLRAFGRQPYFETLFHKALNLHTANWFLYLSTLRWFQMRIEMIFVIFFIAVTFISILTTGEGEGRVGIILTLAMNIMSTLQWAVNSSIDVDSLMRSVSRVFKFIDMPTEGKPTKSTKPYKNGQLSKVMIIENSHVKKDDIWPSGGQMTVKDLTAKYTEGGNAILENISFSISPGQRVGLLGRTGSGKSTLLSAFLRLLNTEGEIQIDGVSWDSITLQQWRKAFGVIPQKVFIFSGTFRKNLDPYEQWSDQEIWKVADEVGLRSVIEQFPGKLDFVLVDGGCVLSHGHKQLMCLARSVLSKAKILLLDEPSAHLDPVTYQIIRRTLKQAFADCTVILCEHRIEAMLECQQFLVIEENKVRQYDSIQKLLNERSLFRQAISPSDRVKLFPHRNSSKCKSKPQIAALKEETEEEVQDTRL
How it was run: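 Short-circuit current was recorded under zero-voltage clamp across primary CF bronchial epithelia cultured >30 days at air/liquid interface, bathed apically and basolaterally in HEPES-buffered saline. Sequential additions: amiloride (30 uM), forskolin (10 uM), compound at 4 increasing levels, CFTRinh-172 (20 uM). Responses normalised between DMSO (0%) and maximal positive-control potentiator (100%).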

[2] = target: T2, recombinant F508del V470 CFTR in Fischer rat thyroid (FRT) cells (Homo sapiens, UniProt P13569, DEL508-508); test: FRT ion flux assay of F508del CFTR potentiation; type: cell-based; conditions: FRT cells expressing F508del V470 CFTR, forskolin 20 uM, 27° C. pre-incubation
T2 construct: expressed in transfected cells
T2 sequence (P13569 with tags, fused parts or gaps DEL508-508): as above
How it was run: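 Potentiation read as YFP quench ~21 s after iodide buffer addition, as second/initial fluorescence ratio normalised between DMSO (0%) and reference potentiator (100%).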

Structure (SMILES) | EC50 [1] [nM] | EC50 [2] [nM]
CCC(c1cn(-c2ccccc2F)nn1)n1cc(-c2cc[nH]n2)c2c(N)ncnc21 (single isomer, unassigned; enantiomer 2) [Example 148, 7-{1-[1-(2-Fluorophenyl)-1H-1,2,3-triazol-4-yl]propyl}-5-(1H-pyrazol-3-yl)-7H-pyrrolo[2,3-d]pyrimidin-4-amine, enantiomer 2] | 25.7 | 12.4
CCC(c1cn(-c2ccc(F)cc2F)nn1)n1c(C#N)c(-c2cnc(C(F)(F)F)nc2)c2c(N)ncnc21 (single isomer, unassigned) [Example 17, 4-Amino-7-{1-[1-(2,4-difluorophenyl)-1H-1,2,3-triazol-4-yl]propyl}-5-[2-(trifluoromethyl)pyrimidin-5-yl]-7H-pyrrolo[2,3-d] pyrimidin-6-carbonitrile] | 49.5 | 45.3
CC(c1cnn(-c2ccc(F)cc2F)c1)n1c(C#N)c(-c2cnc(C(F)(F)F)nc2)c2c(N)ncnc21 (single isomer, unassigned) [Example 8, 4-Amino-7-{1-[1-(2,4-difluorophenyl)-1H-pyrazol-4-yl]ethyl}-5-[2-(trifluoromethyl)pyrimidin-5-yl]-7H-pyrrolo[2,3-d] pyrimidine-6-carbonitrile] | 15.5 | 35.2
COc1cccnc1-c1cn(Cc2cn(-c3ccccc3F)nn2)c2ncnc(N)c12 [Example 207, 7-{[1-(2-fluorophenyl)-1H-1,2,3-triazol-4-yl]methyl}-5-(3-methoxypyridin-2-yl)-7H-pyrrolo[2,3-d]pyrimidin-4-amine] | 238 | 226
CCC(c1cn(-c2ccccc2F)nn1)n1cc(-c2ccc(OC(F)F)nc2)c2c(N)ncnc21 (single isomer, unassigned; enantiomer 1) [Example 141, (−) 5-[6-(Difluoromethoxy)pyridin-3-yl]-7-{1-[1-(2-fluorophenyl)-1H-1,2,3-triazol-4-yl]propyl}-7H-pyrrolo[2,3-d]pyrimidin-4-amine, enantiomer 1] | 133 | 277
Nc1ncnc2c1c(-c1cccc3ncoc13)cn2Cc1cn(-c2ccccc2F)nn1 [Example 299, 5-(1,3-Benzoxazol-7-yl)-7-{[1-(2-fluorophenyl)-1H-1,2,3-triazol-4-yl]methyl}-7H-pyrrolo[2,3-d]pyrimidin-4-amine] | 273 | 235
CCC(c1cn(-c2ccc(F)c(F)c2)nn1)n1cc(-c2cncnc2OC)c2c(N)ncnc21 (single isomer, unassigned; enantiomer 2) [Example 152, (−) 7-{1-[1-(3,4-Difluorophenyl)-1H-1,2,3-triazol-4-yl]propyl}-5-(4-methoxypyrimidin-5-yl)-7H-pyrrolo[2,3-d]pyrimidin-4-amine, enantiomer 2] | 445 | 182
CCC(c1cn(-c2ccccc2F)nn1)n1cc(-c2cncnc2OC)c2c(N)ncnc21 (stereo not drawn) [Example 244, 7-{1-[1-(2-Fluorophenyl)-1H-1,2,3-triazol-4-yl]propyl}-5-[4-methoxypyrimidin-5-yl]-7H-pyrrolo[2,3-d]pyrimidin-4-amine] | 61.6 | 34.1
CCC(c1cn(-c2cccc(F)c2F)nn1)n1cc(-c2cnc(C(F)(F)F)nc2)c2c(N)ncnc21 (single isomer, unassigned) [Example 188, 7-{1-[1-(2,3-Difluorophenyl)-1H-1,2,3-triazol-4-yl]propyl}-5-[2-(trifluoromethyl)pyrimidin-5-yl]-7H-pyrrolo[2,3-d]pyrimidin-4-amine] | 243 | 551
CCC(c1cn(-c2ccccc2F)nn1)n1cc(-c2ccc(Cl)cc2)c2c(N)ncnc21 (single isomer, unassigned; enantiomer 2) [Example 132, (+) 5-(4-Chlorophenyl)-7-{1-[1-(2-fluorophenyl)-1H-1,2,3-triazol-4-yl]propyl}-7H-pyrrolo[2,3-d]pyrimidin-4-amine, enantiomer 2] | 11.3 | 38

Other lines, results leading:

EC50 [1] [nM] | EC50 [2] [nM] | Structure (SMILES)
89.2 | 30 | CC(c1cn(-c2ccccc2F)nn1)n1cc(-c2cc[nH]n2)c2c(N)ncnc21 (single isomer, unassigned; enantiomer 1) [Example 121, 7-{1-[1-(2-Fluorophenyl)-1H-1,2,3-triazol-4-yl]ethyl}-5-(1H-pyrazol-3-yl)-7H-pyrrolo[2,3-d]pyrimidin-4-amine, enantiomer 1]
29.7 | 26 | CCC(c1cn(-c2ccccc2F)nn1)n1cc(-c2cnc(N(C)C)nc2)c2c(N)ncnc21 (single isomer, unassigned; enantiomer 1) [Example 145, 5-[2-(Dimethylamino)pyrimidin-5-yl]-7-{1-[1-(2-fluorophenyl)-1H-1,2,3-triazol-4-yl]propyl}-7H-pyrrolo[2,3-d]pyrimidin-4-amine, enantiomer 1]
8.77 | 7.51 | CC(c1cnn(-c2ccccc2F)c1)n1c(C#N)c(-c2cnc(C(F)F)nc2)c2c(N)ncnc21 (single isomer, unassigned) [Example 2, 4-Amino-5-[2-(difluoromethyl)pyrimidin-5-yl]-7-{1-[1-(2-fluorophenyl)-1H-pyrazol-4-yl]ethyl}-7H-pyrrolo[2,3-d]pyrimidine-6-carbonitrile]
1320 | 573 | CC(c1cnc(-c2ccccc2F)[nH]1)n1cc(-c2ccc3[nH]ncc3c2)c2c(N)ncnc21 (stereo not drawn) [Example 66, 7-{1-[2-(2-Fluorophenyl)-1H-imidazol-5-yl]ethyl}-5-(1H-indazol-5-yl)-7H-pyrrolo[2,3-d]pyrimidin-4-amine]
295 | 343 | Cc1nc(N)c2c(-c3ccc(Cl)cc3)cn(C(C)c3cn(-c4ccccc4F)nn3)c2n1 (stereo not drawn) [Example 209, 5-(4-Chlorophenyl)-7-{1-[1-(2-fluorophenyl)-1H-1,2,3-triazol-4-yl]ethyl}-2-methyl-7H-pyrrolo[2,3-d]pyrimidin-4-amine]
162 | 378 | CC(c1cn(-c2ccccc2F)nn1)n1cc(-c2ccc(OC3CC3)cc2)c2c(N)ncnc21 (single isomer, unassigned; enantiomer 2) [Example 118, (−) 5-[4-(Cyclopropyloxy)phenyl]-7-{1-[1-(2-fluorophenyl)-1H-1,2,3-triazol-4-yl]ethyl}-7H-pyrrolo[2,3-d]pyrimidin-4-amine, enantiomer 2]
35.7 | 130 | N#Cc1c(-c2ccc(Cl)cc2)c2c(N)ncnc2n1Cc1cn(-c2ccccc2F)nn1 [Example 26, 4-Amino-5-(4-chlorophenyl)-7-{[1-(2-fluorophenyl)-1H-1,2,3-triazol-4-yl]methyl}-7H-pyrrolo[2,3-d]pyrimidine-6-carbonitrile]
65.2 | 203 | CCC(c1cn(-c2ccccc2F)nn1)n1cc(-c2nccnc2OC)c2c(N)ncnc21 (single isomer, unassigned; enantiomer 1) [Example 135, (−) 7-{1-[1-(2-Fluorophenyl)-1H-1,2,3-triazol-4-yl]propyl}-5-(3-methoxypyrazin-2-yl)-7H-pyrrolo[2,3-d]pyrimidin-4-amine, enantiomer 1]
80 | 45.3 | CC(c1cnc(-c2ccccc2F)[nH]1)n1cc(-c2cc[nH]n2)c2c(N)ncnc21 (stereo not drawn) [Example 60, 7-{1-[2-(2-Fluorophenyl)-1H-imidazol-5-yl]ethyl}-5-(1H-pyrazol-3-yl)-7H-pyrrolo[2,3-d]pyrimidin-4-amine]
3 | 5.71 | CCC(c1cn(-c2ccccc2F)nn1)n1cc(-c2cc(F)cnc2OC)c2c(N)ncnc21 (single isomer, unassigned; enantiomer 1) [Example 139, (+) 5-(5-Fluoro-2-methoxypyridin-3-yl)-7-{1-[1-(2-fluorophenyl)-1H-1,2,3-triazol-4-yl]propyl}-7H-pyrrolo[2,3-d]pyrimidin-4-amine, enantiomer 1]
2930 | 933 | COc1ncncc1-c1cn(C(c2cn(-c3ccccc3F)nn2)C2COC2)c2ncnc(N)c12 (stereo not drawn) [Example 315, 7-{[1-(2-Fluorophenyl)-1H-1,2,3-triazol-4-yl](oxetan-3-yl)methyl}-5-(4-methoxypyrimidin-5-yl)-7H-pyrrolo[2,3-d]pyrimidin-4-amine]
19.8 | 59 | CCC(c1cn(-c2ccc(F)c(F)c2)nn1)n1cc(-c2cnc(C(F)(F)F)nc2)c2c(N)ncnc21 (single isomer, unassigned; enantiomer 1) [Example 153, 7-{1-[1-(3,4-Difluorophenyl)-1H-1,2,3-triazol-4-yl]propyl}-5-[2-(trifluoromethyl)pyrimidin-5-yl]-7H-pyrrolo[2,3-d]pyrimidin-4-amine, enantiomer 1]
6.21 | 2.65 | CC(c1cn(-c2ccccc2F)nn1)n1cc(C2CCC2)c2c(N)ncnc21 (single isomer, unassigned) [Example 110, 5-Cyclobutyl-7-{1-[1-(2-fluorophenyl)-1H-1,2,3-triazol-4-yl]ethyl}-7H-pyrrolo[2,3-d]pyrimidin-4-amine]
338 | 379 | Nc1ncnc2c1c(-c1ccc3[nH]ccc3c1)cn2Cc1cn(-c2ccccc2F)nn1 [Example 81, 7-{[1-(2-Fluorophenyl)-1H-1,2,3-triazol-4-yl]methyl}-5-(1H-indol-5-yl)-7H-pyrrolo[2,3-d]pyrimidin-4-amine]
